The text below walks through data of patent US11976083B2, “Inhibitors of peptidylarginine deiminases” (Gilead Sciences, Inc., priority 2020, dated 2024).

For the test, the target named is T1, human PAD4 (Homo sapiens, UniProt Q9UM07).
T1 construct: human PAD4 (NM_012387), A2-P663, was PCR amplified; His-SUMO (N, cleaved yes); made in house; host or cells: E. coli BL21(DE3)
Description: In vitro PAD4 BAEE biochemical assay. The conditions noted are these: BAEE substrate 3 mM, 5 nM PAD4, 2 mM calcium chloride; geometric mean of multiple experiments. A digest of the protocol: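 Recombinant PAD4 (5 nM final) with 2 mM CaCl2 was preincubated with compound for 30 min at 25 °C in MOPS pH 7.6 buffer with DTT, then reacted with 3 mM BAEE for 2 h at 25 °C. Released ammonia was detected fluorimetrically with o-phthalaldehyde/DTT; IC50 from four-parameter fit, geometric mean of experiments.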

T1 sequence (Q9UM07 2-663): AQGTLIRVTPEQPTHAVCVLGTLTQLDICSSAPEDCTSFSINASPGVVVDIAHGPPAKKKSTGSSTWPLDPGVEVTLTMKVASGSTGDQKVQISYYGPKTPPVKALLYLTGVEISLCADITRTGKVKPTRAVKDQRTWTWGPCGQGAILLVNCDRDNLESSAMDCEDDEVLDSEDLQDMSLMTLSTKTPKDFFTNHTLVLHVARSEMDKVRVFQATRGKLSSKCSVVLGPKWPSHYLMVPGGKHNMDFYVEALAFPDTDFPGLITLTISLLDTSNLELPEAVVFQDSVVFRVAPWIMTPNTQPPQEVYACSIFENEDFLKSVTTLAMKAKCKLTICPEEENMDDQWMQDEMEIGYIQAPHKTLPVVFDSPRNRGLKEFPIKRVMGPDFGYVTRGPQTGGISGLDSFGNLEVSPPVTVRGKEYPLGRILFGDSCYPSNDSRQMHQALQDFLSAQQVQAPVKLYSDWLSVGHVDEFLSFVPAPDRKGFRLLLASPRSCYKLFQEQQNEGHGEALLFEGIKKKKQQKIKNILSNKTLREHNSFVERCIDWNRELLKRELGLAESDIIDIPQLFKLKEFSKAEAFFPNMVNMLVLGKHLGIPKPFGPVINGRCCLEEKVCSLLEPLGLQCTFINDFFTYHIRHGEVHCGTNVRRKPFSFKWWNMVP

The IC50 is the concentration needed to halve the response being measured. As to `COc1cc(C(=O)N2CCC[C@@H](N)C2)cc2nc(-c3cc4ccc5nc4n3CCCCCc3nccnc3C(=O)N[C@@H]5C)n(C)c12` [Example 627, (2~{R})-17-[5-[(3~{R})-3-aminopiperidine-1-carbonyl]-7-methoxy-1-methyl-benzimidazol-2-yl]-2-methyl-3,6,9,16,22-pentazatetracyclo [14.5.2.0^{5,10}.0^{19,23}] tricosa-1(22),5(10), 6,8,17,19(23),20-heptaen-4-one], the IC50 was determined as 49 nM. In the case of `COc1cc(C(=O)N2C[C@H](N)[C@@H]3CC[C@H]2C3)cc2nc(-c3cc4ccc5nc4n3CCCCCc3nc(C(F)F)ccc3C(=O)N[C@@H]5C)c(C)n12` [Example 777, (2~{R})-17-[7-[(1~{S},4~{R},5~ {R})-4-amino-2-azabicyclo [3.2.1]octane-2-carbonyl]-5-methoxy-3-methyl-imidazo[1,2-a]pyridin-2-yl]-8-(difluoromethyl)-2-methyl-3,9,16,22-tetrazatetracyclo [14.5.2.0^{5,10).0^{19,23}] tricosa-1(22),5(10),6,8,17, 19(23),20-heptaen-4-one], the half-inhibitory concentration (IC50) amounted to 17 nM.

On to `COc1cc(C(=O)N2CC[C@@H](OC)[C@@H](N)C2)cc2nc(-c3cc4ccc5nc4n3CCCCC[C@@H]3C[C@@]3(F)C(=O)N[C@@H]5C)n(C)c12` [Example 695, (2~{R},5~{S},7~{R})-14-[5-[(3~{S},4~{R})-3-amino-4-methoxy-piperidine-1-carbonyl]-7-methoxy-1-methyl-benzimidazol-2-yl]-5-fluoro-2-methyl-3,13,19-triazatetracyclo[11.5.2.0^ {5,7}.0^{16,20}]icosa-1(19), 14,16(20),17-tetraen-4-one], for which the half-inhibitory concentration (IC50) was 57 nM.

With `CO[C@@H]1CCN(C(=O)c2cc3c4c(c2)nc(-c2cc5ccc6nc5n2CCCCC[C@@H]2C[C@H]2C(=O)N[C@@H]6C)n4CCO3)C[C@@H]1N` [Example 729, (2~{R},5~{R},7~{R})-14-[6-[(3~{S},4~{R})-3-amino-4-methoxy-piperidine-1-carbonyl]-9-oxa-1,3-diazatricyclo [6.3.1.0^{4,12}]dodeca-2,4,6,8(12)-tetraen-2-yl]-2-methyl-3,13,19-triazatetracyclo[11.5.2.0^ {5,7}.0^{16,20}] icosa-1(19),14,16(20),17-tetraen-4-one], the half-inhibitory concentration (IC50) was 307 nM.

As to `COc1cc(C(=O)N2[C@H]3CC[C@@H]2[C@H](N)C3)cc2nc(-c3cc4ccc5nc4n3CCCCCCCCOc3ncccc3-5)n(C)c12` [Example 86, [(1~{R},2~{R},4~{S})-2-amino-7-azabicyclo[2.2.1]heptan-7-yl]-[7-methoxy-1-methyl-2-(8-oxa-6,17,23-triazatetracyclo[15.5.2.0^{2,7}.0^{20,24}]tetracosa-1(23),2,4,6,18,20(24),21-heptaen-18-yl)benzimidazol-5-yl]methanone], the 50% inhibitory concentration (IC50) was found to be 643 nM.

As to `COc1cc(C(=O)N2CC(N)CC(F)(F)C2)cc2nc(-c3cc4ccc5nc4n3CCCCCCC(C)(C)C(=O)N[C@@H]5C)n(C)c12` (some centres unmarked) [Example 204, (11~{R})-17-[5-(5-amino-3,3-difluoro-piperidine-1-carbonyl)-7-methoxy-1-methyl-benzimidazol-2-yl]-8,8,11-trimethyl-1,10,19-triazatricyclo[10.5.2.0^{15,18}]nonadeca-12(19),13,15(18),16-tetraen-9-one], the IC50 is 3350 nM. As for `COc1cc(C(=O)N2C[C@H](N)[C@@H]3CC[C@H]2C3)cc2nc(-c3cc4ccc5nc4n3CCCCC[C@@H]3C[C@@]3(F)C(=O)N[C@@H]5C)n(C)c12` [Example 447, (2~{R},5~{S},7~{R})-14-[5-[(1~{S},4~{R},5~{R})-4-amino-2-azabicyclo[3.2.1]octane-2-carbonyl]-7-methoxy-1-methyl-benzimidazol-2-yl]-5-fluoro-2-methyl-3,13,19-triazatetracyclo[11.5.2.0^{5,7}.0^{16,20}] icosa-1(19),14,16(20),17-tetraen-4-one], the half-maximal inhibitory concentration (IC50) stood at 37 nM. Take `COc1cc(C(=O)N[C@H]2CNCC[C@@H]2F)cc2nc(-c3cc4ccc5nc4n3C/C=C(/F)COCCC(=O)N[C@@H]5C)n(C)c12` [Example 619, 2-[(3~{E},11~{R})-4-fluoro-11-methyl-9-oxo-6-oxa-1,10,19-triazatricyclo[10.5.2.0^ {15,18}]nonadeca-3,12(19),13,15(18), 16-pentaen-17-yl]- ~{N}-[(3~{S},4~{S})-4-fluoro-3-piperidyl]-7-methoxy-1-methyl-benzimidazole-5-carboxamide]: the IC50 turned out to be 38 nM. Take `COc1cc(C(=O)N2C[C@H](N)[C@@H]3CC[C@H]2C3)cc2nc(-c3cc4ccc5nc4n3CCCCCC[C@@](F)(c3cccc(Cl)n3)C(=O)N[C@@H]5C)n(C)c12` [Example 887, (8~{R},11~{R})-17-[5-[(1~{S),4~{R},5~{R})-4-amino-2-azabicyclo[3.2.1]octane-2-carbonyl]-7-methoxy-1-methyl-benzimidazol-2-yl]-8-(6-chloro-2-pyridyl)-8-fluoro-11-methyl-1,10,19-triazatricyclo[10.5.2.0^ {15,18}]nonadeca-12(19),13,15(18), 16-tetraen-9-one]: the IC50 was determined as 52 nM. As to `COc1cc(C(=O)N[C@H]2CNCC[C@@H]2F)cc2nc(-c3cc4ccc5nc4n3Cc3ccccc3CCCCC(=O)N[C@@H]5C)n(C)c12` [Example 590, ~{N}-[(3~{S},4~{S})-4-fluoro-3-piperidyl]-7-methoxy-1-methyl-2-[(15~{R})-15-methyl-13-oxo-1,14,23-triazatetracyclo[14.5.2.0^ {3,8}.0^{19,22}]tricosa-3(8),4,6,16,18,20,22-heptaen-21-yl] benzimidazole-5-carboxamide], the IC50 was 683 nM.

With `C[C@H]1NC(=O)CCCCCCCn2c(-c3nc4cc(C(=O)N5CCC[C@@H](N)C5)ccn4c3C3CC3)cc3ccc1nc32` [Example 228, (11~{R})-17-[7-[(3~{R})-3-aminopiperidine-1-carbonyl]-3-cyclopropyl-imidazo[1,2-a]pyridin-2-yl]-11-methyl-1,10,19-triazatricyclo[10.5.2.0^{15,18}]nonadeca-12(19),13,15(18),16-tetraen-9-one], the IC50 was found to be 131 nM. For the compound `COc1cc(C(=O)N2CC[C@@H](OC)[C@@H](N)C2)cc2nc(-c3cc4ccc5nc4n3CCCCCCc3nccnc3C(=O)N[C@@H]5C)n(C)c12` [Example 606, (2~{R})-18-[5-[(3~{S},4~ {R})-3-amino-4-methoxy-piperidine-1-carbonyl]-7-methoxy-1-methyl-benzimidazol-2-yl]-2-methyl-3,6,9,17,23-pentazatetracyclo[15.5.2.0^ {5,10}.0^{20,24}]tetracosa-1(23),5(10),6,8,18,20(24), 21-heptaen-4-one], the 50% inhibitory concentration (IC50) is 129 nM. On to `COc1cc(C(=O)N2CC[C@@H](OC)[C@@H](N)C2)cc2nc(-c3cc4ccc5nc4n3CCCCCc3cc4ccccc4nc3C(=O)N(C)[C@@H]5C)n(C)c12` [Example 735, (2~{R})-21-[5-[(3~{S},4~ {R})-3-amino-4-methoxy-piperidine-1-carbonyl]-7-methoxy-1-methyl-benzimidazol-2-yl]-2,3-dimethyl-3,6,20,26-tetrazapentacyclo[18.5.2.0^ {5,14).0^{7,12}.0^ {23,27}]heptacosa-1(26),5(14),6,8,10,12,21,23(27), 24-nonaen-4-one], for which the IC50 was found to be 143 nM. As for `COc1cc(C(=O)N2CC[C@@H](OC)[C@@H](N)C2)cc2nc(-c3cc4ccc5nc4n3CC(F)(F)CCC[C@]3(F)C[C@H]3C(=O)N[C@@H]5C)n(C)c12` [Example 702, (2~{R},5~{S},7~{S})-14-[5-[(3~{S},4~{R})-3-amino-4-methoxy-piperidine-1-carbonyl]-7-methoxy-1-methyl-benzimidazol-2-yl]-7,11,11-trifluoro-2-methyl-3,13,19-triazatetracyclo[11.5.2.0^ {5,7}.0^{16,20}]icosa-1(19),14,16(20),17-tetraen-4-one], the IC50 was 21 nM. On to `COc1cc(C(=O)N2CC[C@@H](OC)[C@@H](N)C2)cc2nc(-c3cc4ccc5nc4n3CC(F)(F)CCCCC3(CC(F)(F)C3)C(=O)N[C@@H]5C)n(C)c12` [Example 821, (11~{R})-17-[5-[(3~{S),4~ {R})-3-amino-4-methoxy-piperidine-1-carbonyl]-7-methoxy-1-methyl-benzimidazol-2-yl]-1′,1′,3,3-tetrafluoro-11-methyl-spiro[1,10,19-triazatricyclo[10.5.2.0^ {15,18}]nonadeca-12 (19),13,15(18),16-tetraene-8,3′-cyclobutane]-9-one], for which the half-inhibitory concentration (IC50) came to 102 nM.

On to `C[C@H]1NC(=O)[C@@H]2C[C@@]2(F)CC[C@@H]2C[C@@H]2Cn2c(-c3nc4cc(C(=O)N5C[C@H](N)[C@@H]6CC[C@H]5C6)cc(F)c4n3C3CC3)cc3ccc1nc32` [Example 918, (3~{S},5~{R},8~{S},10~{S}, 13~{R})-19-[5-[(1~{S), 4~{R},5~{R})-4-amino-2-azabicyclo[3.2.1]octane-2-carbonyl]-1-cyclopropyl-7-fluoro-benzimidazol-2-yl]-8-fluoro-13-methyl-1,12,21-triazapentacyclo[12.5.2.0^ {3,5}.0^{8,10}.0^{17,20}] henicosa-14(21),15, 17(20),18-tetraen-11-one], for which the IC50 is 31 nM.

In the case of `Cc1cncc2c1C(=O)N[C@H](C)c1ccc3cc(-c4nc5cc(C(=O)N[C@H]6CNCC[C@@H]6F)c(F)cc5n4C4CC4)n(c3n1)CCCCC2` [Example 395, 1-cyclopropyl-2-[(2~{R})-2,6-dimethyl-4-oxo-3,8,16,22-tetrazatetracyclo[14.5.2.0^{5,10}.0^{19,23}]tricosa-1(22),5(10),6,8,17,19(23),20-heptaen-17-yl]-6-fluoro-~{N}-[(3~{S},4~{S})-4-fluoro-3-piperidyl]benzimidazole-5-carboxamide], the IC50 came to 29 nM.
